Assay results published in article PMC8380825 (Journal of molecular biology, 2021).
Where no end group is shown, it is not given here.

What was measured:
[1] = tested on: NPR-1 mutants; experiment: cAMP reporter gene assay; format: cell-based, C. elegans; settings: mutation of T^2.61 and Q^3.32 of NPR-1
[2] = target: NPR-1 mutants (Caenorhabditis elegans, UniProt Q18534, E180Q); experiment: cAMP reporter gene assay; format: cell-based, C. elegans
[3] = target: NPR-1 mutants (Caenorhabditis elegans, UniProt Q18534, D315A); experiment: cAMP reporter gene assay; format: cell-based, C. elegans; settings: NPR-1 D^7.26A mutant
NPR-1 mutants (Caenorhabditis elegans, UniProt Q18534, D315A), sequence (Q18534 whole entry D315A): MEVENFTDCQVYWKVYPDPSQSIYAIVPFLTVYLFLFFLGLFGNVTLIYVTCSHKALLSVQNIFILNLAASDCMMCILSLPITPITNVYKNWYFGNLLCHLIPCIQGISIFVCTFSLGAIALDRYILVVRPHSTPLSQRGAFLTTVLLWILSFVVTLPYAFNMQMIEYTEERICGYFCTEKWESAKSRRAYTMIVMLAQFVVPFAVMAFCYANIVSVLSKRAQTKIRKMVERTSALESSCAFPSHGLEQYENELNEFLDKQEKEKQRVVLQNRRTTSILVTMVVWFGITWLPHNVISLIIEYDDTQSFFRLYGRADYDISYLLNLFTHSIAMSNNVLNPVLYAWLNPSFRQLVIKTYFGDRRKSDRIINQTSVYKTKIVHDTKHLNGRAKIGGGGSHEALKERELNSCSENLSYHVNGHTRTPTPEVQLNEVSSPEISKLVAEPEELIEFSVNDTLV

[4] = target: NPR-1 mutants (Caenorhabditis elegans, UniProt Q18534, E301D); experiment: cAMP reporter gene assay; format: cell-based, C. elegans
NPR-1 mutants (Caenorhabditis elegans, UniProt Q18534, E301D), sequence (Q18534 whole entry E301D): as the sequence (Q18534 whole entry D315A) above, with E301D, A315D counted along it

[5] = target: NPR-1 mutants (Caenorhabditis elegans, UniProt Q18534, E180A); experiment: cAMP reporter gene assay; format: cell-based, C. elegans
NPR-1 mutants (Caenorhabditis elegans, UniProt Q18534, E180A), sequence (Q18534 whole entry E180A): as the sequence (Q18534 whole entry D315A) above, with E180A, A315D counted along it

[6] = target: NPR-1 mutants (Caenorhabditis elegans, UniProt Q18534, D316A); experiment: cAMP reporter gene assay; format: cell-based, C. elegans; settings: NPR-1 D^7.27A mutant
NPR-1 mutants (Caenorhabditis elegans, UniProt Q18534, D316A), sequence (Q18534 whole entry D316A): as the sequence (Q18534 whole entry D315A) above, with A315D, D316A counted along it

[7] = target: NPR-1 mutants (Caenorhabditis elegans, UniProt Q18534, D303A/D304A/E301A); experiment: cAMP reporter gene assay; format: cell-based, C. elegans
NPR-1 mutants (Caenorhabditis elegans, UniProt Q18534, D303A/D304A/E301A), sequence (Q18534 whole entry E301A/D303A/D304A): as the sequence (Q18534 whole entry D315A) above, with E301A, D303A, D304A, A315D counted along it

[8] = target: NPR-1 mutants (Caenorhabditis elegans, UniProt Q18534, E301A); experiment: cAMP reporter gene assay; format: cell-based, C. elegans
NPR-1 mutants (Caenorhabditis elegans, UniProt Q18534, E301A), sequence (Q18534 whole entry E301A): as the sequence (Q18534 whole entry D315A) above, with E301A, A315D counted along it

[9] = target: NPR-1 mutants (Caenorhabditis elegans, UniProt Q18534, E180D); experiment: cAMP reporter gene assay; format: cell-based, C. elegans
NPR-1 mutants (Caenorhabditis elegans, UniProt Q18534, E180D), sequence (Q18534 whole entry E180D): as the sequence (Q18534 whole entry D315A) above, with E180D, A315D counted along it

[10] = target: NPR-11 mutants (Caenorhabditis elegans, UniProt Q18179, E196D); experiment: cAMP reporter gene assay; format: cell-based, C. elegans; settings: NPR-11 E^5.23D
NPR-11 mutants (Caenorhabditis elegans, UniProt Q18179, E196D), sequence (Q18179 whole entry E196D): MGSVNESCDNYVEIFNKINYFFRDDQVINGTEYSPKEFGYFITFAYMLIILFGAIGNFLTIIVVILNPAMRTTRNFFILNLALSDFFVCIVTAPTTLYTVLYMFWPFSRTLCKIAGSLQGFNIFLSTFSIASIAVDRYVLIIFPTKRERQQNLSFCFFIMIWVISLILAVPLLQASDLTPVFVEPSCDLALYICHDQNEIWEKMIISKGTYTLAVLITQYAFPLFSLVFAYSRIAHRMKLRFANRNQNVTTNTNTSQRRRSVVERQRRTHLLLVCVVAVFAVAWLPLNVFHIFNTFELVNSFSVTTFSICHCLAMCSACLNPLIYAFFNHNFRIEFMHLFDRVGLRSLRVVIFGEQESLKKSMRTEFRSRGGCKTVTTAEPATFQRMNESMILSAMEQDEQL

[11] = target: NPR-11 mutants (Caenorhabditis elegans, UniProt Q18179, E196Q); experiment: cAMP reporter gene assay; format: cell-based, C. elegans
NPR-11 mutants (Caenorhabditis elegans, UniProt Q18179, E196Q), sequence (Q18179 whole entry E196Q): as the sequence (Q18179 whole entry E196D) above, with D196Q counted along it

[12] = target: NPR-11 mutants (Caenorhabditis elegans, UniProt Q18179, Q119A); experiment: cAMP reporter gene assay; format: cell-based, C. elegans
NPR-11 mutants (Caenorhabditis elegans, UniProt Q18179, Q119A), sequence (Q18179 whole entry Q119A): as the sequence (Q18179 whole entry E196D) above, with Q119A, D196E counted along it

[13] = target: NPR-11 mutants (Caenorhabditis elegans, UniProt Q18179, Q119H); experiment: cAMP reporter gene assay; format: cell-based, C. elegans; settings: NPR-11 Q^3.32H
NPR-11 mutants (Caenorhabditis elegans, UniProt Q18179, Q119H), sequence (Q18179 whole entry Q119H): as the sequence (Q18179 whole entry E196D) above, with Q119H, D196E counted along it

[14] = target: NPR-11 mutants (Caenorhabditis elegans, UniProt Q18179, E199A); experiment: cAMP reporter gene assay; format: cell-based, C. elegans; settings: NPR-11 E^5.26A
NPR-11 mutants (Caenorhabditis elegans, UniProt Q18179, E199A), sequence (Q18179 whole entry E199A): as the sequence (Q18179 whole entry E196D) above, with D196E, E199A counted along it

[15] = target: NPR-11 mutants (Caenorhabditis elegans, UniProt Q18179, E196A); experiment: cAMP reporter gene assay; format: cell-based, C. elegans
NPR-11 mutants (Caenorhabditis elegans, UniProt Q18179, E196A), sequence (Q18179 whole entry E196A): as the sequence (Q18179 whole entry E196D) above, with D196A counted along it

[16] = tested on: NPR-11 mutants; experiment: cAMP reporter gene assay; format: cell-based, C. elegans
[17] = target: NPR-11 mutants (Caenorhabditis elegans, UniProt Q18179, T96A); experiment: cAMP reporter gene assay; format: cell-based, C. elegans; settings: NPR-11 T^2.61A
NPR-11 mutants (Caenorhabditis elegans, UniProt Q18179, T96A), sequence (Q18179 whole entry T96A): as the sequence (Q18179 whole entry E196D) above, with T96A, D196E counted along it

[18] = target: NPR-11 mutants (Caenorhabditis elegans, UniProt Q18179, F307A); experiment: cAMP reporter gene assay; format: cell-based, C. elegans; settings: NPR-11 F^7.35A
NPR-11 mutants (Caenorhabditis elegans, UniProt Q18179, F307A), sequence (Q18179 whole entry F307A): as the sequence (Q18179 whole entry E196D) above, with D196E, F307A counted along it

[19] = target: T1, NPR-11 (Caenorhabditis elegans, UniProt Q18179); experiment: cAMP reporter gene assay; format: cell-based, C. elegans
T1 sequence (Q18179 1-402): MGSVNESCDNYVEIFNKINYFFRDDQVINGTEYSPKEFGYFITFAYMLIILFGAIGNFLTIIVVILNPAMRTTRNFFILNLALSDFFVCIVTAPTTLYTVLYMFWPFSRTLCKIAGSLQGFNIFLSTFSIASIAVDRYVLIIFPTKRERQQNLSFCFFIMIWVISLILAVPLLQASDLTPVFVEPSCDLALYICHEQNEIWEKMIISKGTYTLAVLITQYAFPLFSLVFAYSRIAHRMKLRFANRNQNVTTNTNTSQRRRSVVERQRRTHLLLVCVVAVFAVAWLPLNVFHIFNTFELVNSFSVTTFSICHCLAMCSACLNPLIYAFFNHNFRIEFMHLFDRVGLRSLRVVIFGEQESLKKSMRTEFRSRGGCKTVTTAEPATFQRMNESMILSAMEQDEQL

[20] = target: T2, NPR-1 (Caenorhabditis elegans, UniProt Q18534); settings: read-out: EC50 at NPR-1; ref [13]; cited from earlier work
T2 sequence (Q18534 1-457): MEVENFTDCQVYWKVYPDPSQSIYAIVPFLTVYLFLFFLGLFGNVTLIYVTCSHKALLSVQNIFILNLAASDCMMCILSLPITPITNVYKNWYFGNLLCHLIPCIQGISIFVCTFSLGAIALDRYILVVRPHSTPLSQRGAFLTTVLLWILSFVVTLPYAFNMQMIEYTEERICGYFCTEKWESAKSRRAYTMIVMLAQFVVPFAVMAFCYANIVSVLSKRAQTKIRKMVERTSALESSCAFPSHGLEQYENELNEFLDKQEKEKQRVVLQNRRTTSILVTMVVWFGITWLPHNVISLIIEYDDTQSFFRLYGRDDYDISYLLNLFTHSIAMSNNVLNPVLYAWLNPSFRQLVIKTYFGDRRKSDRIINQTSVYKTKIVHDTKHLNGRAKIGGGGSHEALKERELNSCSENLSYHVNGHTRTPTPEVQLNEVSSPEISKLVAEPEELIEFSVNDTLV

[21] = target: T2, NPR-1; experiment: cAMP reporter gene assay; format: cell-based, C. elegans; settings: wild type NPR-1
[22] = target: Q^3.32A variant of NPR-11 (Caenorhabditis elegans, UniProt Q18179, Q119A); experiment: NanoBRET displacement binding assay, Nluc-NPR-11 Q^3.32A variant; parameters: species or system C. elegans
Q^3.32A variant of NPR-11, sequence (Q18179 whole entry Q119A): as the sequence (Q18179 whole entry E196D) above, with Q119A, D196E counted along it

[23] = target: T1, NPR-11; experiment: NanoBRET displacement binding assay, Nluc-NPR-11 wild type; parameters: species or system C. elegans

NPR-1 mutants (Caenorhabditis elegans, UniProt Q18534, E180Q), sequence (Q18534 whole entry E180Q): as the sequence (Q18534 whole entry D315A) above, with E180Q, A315D counted along it

Substance: GLGPRPLRF-NH2 [FLP-21]
- decrease of receptor activation relative to wild type receptor [1]: > 30 fold
- EC50 [2]: > 10000 nM
- EC50 shift relative to wild type receptor [3]: < 5 fold
- EC50 [4]: 0.13 nM
- EC50 [5]: > 10000 nM
- EC50 shift relative to wild type receptor [6]: < 5 fold
- EC50 [7]: > 10000 nM
- EC50 [8]: 20 nM
- EC50 shift relative to wild type NPR-1 ([8]; NPR-1 E^6.59A): 25 fold
- EC50 [9]: 495 nM
- EC50 shift relative to wild type receptor ([9]; NPR-1 E^5.27D): > 600 fold
- decreased potency relative to wild type receptor [10]: > 70 fold
- EC50 [11]: > 10000 nM
- EC50 [12]: 0.1 nM
- EC50 as fold of the wild type receptor ([12]; NPR-11 Q^3.32A): 0.002 fold
- gain of function relative to wild type receptor ([12]; NPR-11 Q^3.32A): > 500 fold
- receptor activation in words [13]: did not affect activation
- receptor activation in words [14]: inactive
- EC50 [15]: > 10000 nM
- receptor activation in words ([16]; NPR-11 E^5.26 mutated to glutamine or aspartate): behaved like wild type
- EC50 shift relative to wild type receptor ([16]; NPR-11 F^7.35 to histidine or leucine): > 200 fold
- receptor activation in words ([16]; NPR-11 T^6.59 and N^6.58 alanine mutants): wild type-like activities
- EC50 shift relative to wild type receptor [17]: 4 fold
- receptor activation in words [18]: inactive
- reduced potency at NPR-11 compared to NPR-1 ([19]; EC50 NPR-11 versus EC50 NPR-1): 64 fold

Substance: RGPSGPLRF-NH2 [FLP-15–2]
- EC50 [20]: 22 nM

Substance: [L^7A]-FLP-21: FLP-21 variant, L^7 to alanine (GLGPRPARF-NH2)
- EC50 shift compared to FLP-21 at the same receptor mutant ([12]; NPR-11 Q^3.32A): 300 fold
- EC50 shift (loss of potency) relative to wild type FLP-21 [21]: 497 fold
- EC50 shift relative to wild type FLP-21 ([19]; wild type NPR-11): 10 fold
- reduction of Ki compared to FLP-21 [22]: 100 fold
- reduction of Ki relative to FLP-21 [23]: less than 10 fold
